Data on 9 molecules can be found in PubChem BioAssay (NCI).

Common to all, as to test: DTP human tumour cell line panel, 48 h
Assay [1] deals with A498 renal.
In assay [2] the test system is U251 CNS.
For assay [3], the system named is A549 NSCLC.
Assay [4] relates to OVCAR-8 ovarian.
Assay [5] relates to SF-539 CNS.
For assay [6], the system named is CCRF-CEM leukemia.
Assay [7] deals with OVCAR-5 ovarian.
For assay [8], the system named is TK-10 renal.
For assay [9], the system named is SK-OV-3 ovarian.
Assay [10] deals with ACHN renal.
For assay [11], the system named is MOLT-4 leukemia.
For assay [12], the system named is SNB-19 CNS.
For assay [13], the system named is OVCAR-3 ovarian.
The test system of assay [14] is UO-31 renal.

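All cell lines were grown in 96-well plates and treated with compound for 48 hours. Definition used: TGI = concentration required for complete inhibition of growth.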

`Cn1c(=O)c(Br)c(C=O)n(CCO[N+](=O)[O-])c1=O`: the TGI in [1] worked out at 33.4 µM; in assay [2] it was 9.77 µM; in assay [3], 33 µM; in assay [4], 7.79 µM; in assay [5] it was 32.8 µM; in assay [6], 5.25 µM. Besides, the TGI in assay [7] was determined as 13.8 µM; in assay [8], 15.7 µM; in [9], 38.7 µM; in assay [10] it was 13.2 µM; in assay [11], 5.8 µM; in [12] it was 68.4 µM.

Turning to `Cc1csc2c(=O)n(C3OC(CO)C(O)C3O)c(=O)[nH]c12` (stereo unspecified), the TGI in assay [13], in assay [1], in [2], in [3], in [4] and in assay [14] was greater than 100 µM in each case. Besides, the TGI in assay [5], in [6], in [7], in [8], in assay [10] and in [11] was greater than 100 µM throughout. This molecule also gave a TGI in [12] greater than 100 µM.

As to `COC(=O)C1(C(=O)OC)Cc2ccc(OC)cc2C2=C1C(=O)c1ccccc1C2=O`, the TGI is 3.69 µM in [13]; 41.8 µM in [1]; 14.8 µM in assay [2]; 30.9 µM in [3]; 9.27 µM in [4]; 18.6 µM in [14]. Also, the TGI in assay [5] worked out at 30.7 µM; in assay [6] it was 11.8 µM; in [7], 20.2 µM; in assay [8] it was 33.4 µM; in [10] it was 15.1 µM; in [11], 3.97 µM. This molecule also registered a concentration for total growth inhibition (TGI) in assay [12] of 33.4 µM.

With `CN(C)Nc1cc(=O)[nH]c(=O)[nH]1`, the total growth inhibition concentration (TGI) in assay [13], in [1], in assay [2], in [3], in assay [4] and in [14] was greater than 100 µM throughout. Moreover, the TGI in assay [5], in [6], in assay [7], in assay [8], in [10] and in assay [11] was greater than 100 µM throughout. Besides, the TGI in assay [12] was greater than 100 µM.

Consider `CCOc1cc(NC(C)=O)ccc1C(=O)NN1C(=O)C(Cl)C1c1ccccc1` (stereo unspecified), for which the concentration for total growth inhibition (TGI) in assay [13] was 34.2 µM; in assay [1], 31.7 µM; in assay [3], 33.3 µM; in assay [4] it was greater than 100 µM; in assay [14] it was 14.9 µM; in [5] it was 35.4 µM. Besides, the TGI in [6] is 38.6 µM; in [7], 31.4 µM; in [8], 31.2 µM; in assay [9], 31.7 µM; in [10], 29.7 µM; in [11] it was 21.3 µM. The molecule further showed a TGI in assay [12] of 28.4 µM.

In the case of `NC(=O)N/N=C(\CC1OC(=O)c2ccccc21)c1ccco1` (stereo unspecified), the concentration for total growth inhibition (TGI) in assay [13], in assay [1], in assay [3], in assay [14], in assay [5] and in assay [6] was greater than 100 µM throughout. In addition, the TGI in assay [7], in assay [8], in assay [9], in assay [10], in [11] and in [12] was greater than 100 µM each time.

For `COc1cc(O)c2c(=O)cc(-c3ccc(O)cc3O)oc2c1CC=C(C)C`, the concentration for total growth inhibition (TGI) in [1] came to 66.4 µM; in assay [2] it was 38.2 µM; in assay [3], 29.7 µM; in [4], 35.3 µM; in [14], 33.5 µM; in assay [5], 34.7 µM. Besides, the concentration for total growth inhibition (TGI) was 63 µM in assay [6]; greater than 100 µM in assay [7]; 74.3 µM in [8]; 30.4 µM in [10]; 83.2 µM in assay [11]; 44.5 µM in [12].

As to `CNS(=O)(=O)NN(C)S(=O)(=O)c1ccccc1`, the total growth inhibition concentration (TGI) in assay [1], in assay [2], in assay [3], in assay [4], in assay [14] and in [5] was greater than 100 µM in each case. In addition, the concentration for total growth inhibition (TGI) in assay [6], in assay [8], in [10], in assay [11] and in assay [12] was greater than 100 µM each time.

In the case of `O=C1C(Cl)C2(CC(/C=C/c3ccccc3Cl)=NN2c2cccc(S(=O)(=O)O)c2)N1c1nc2ccccc2s1` (stereo unspecified), the TGI in [1] was greater than 100 µM; in assay [2] it was greater than 100 µM; in assay [3], greater than 100 µM; in assay [4] it was greater than 100 µM; in [14], 16.3 µM; in assay [5] it was 37.6 µM. For the same molecule, the TGI in assay [6] was 33.9 µM; in assay [7], greater than 100 µM; in assay [8], 84.6 µM; in [10] it was greater than 100 µM; in assay [11], greater than 100 µM; in [12], greater than 100 µM.

As a reminder, the TGI is the concentration giving total growth inhibition. Read a low TGI as greater sensitivity of the cells.
